Measured values from ChEMBL document CHEMBL5505967, “Design and synthesis of 4-amino-2',4'-dihydroxyindanone derivatives as potent inhibitors of tyrosinase and melanin biosynthesis in human melanoma cells” (Eur J Med Chem, 2024).

Assays:
MNT-1 [1] = assay: cells; settings: Homo sapiens, MNT-1, 96 h
Description: Cytotoxicity against human MNT-1 cells incubated for 4 days by resazurin assay

Tyrosinase [2] = target: T1, Tyrosinase (Homo sapiens, UniProt P14679)
T1 sequence (P14679 whole entry): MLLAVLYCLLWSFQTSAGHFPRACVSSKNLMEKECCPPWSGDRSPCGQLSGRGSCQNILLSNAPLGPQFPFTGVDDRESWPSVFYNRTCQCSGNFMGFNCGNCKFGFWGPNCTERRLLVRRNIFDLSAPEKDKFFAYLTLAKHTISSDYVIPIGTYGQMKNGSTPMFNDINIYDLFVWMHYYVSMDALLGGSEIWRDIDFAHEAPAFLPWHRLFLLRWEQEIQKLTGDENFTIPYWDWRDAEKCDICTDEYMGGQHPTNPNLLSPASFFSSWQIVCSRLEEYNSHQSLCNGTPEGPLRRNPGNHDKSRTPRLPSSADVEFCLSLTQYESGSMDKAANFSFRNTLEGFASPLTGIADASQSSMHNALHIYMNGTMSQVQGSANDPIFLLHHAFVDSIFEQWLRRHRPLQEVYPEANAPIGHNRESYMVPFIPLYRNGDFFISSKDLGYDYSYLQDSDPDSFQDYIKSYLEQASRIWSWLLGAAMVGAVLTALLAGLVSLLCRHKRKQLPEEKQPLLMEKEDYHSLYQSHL
Description: Inhibition of tyrosinase in human MNT-1 cells using L-DOPA as substrate preincubated for 10 mins followed by substrate addition measured after 180 mins by absorbance based spectramax microplate reader assay

MNT-1 [3] = assay: cells; settings: Homo sapiens, MNT-1, 336 h
Description: Inhibition of melanogenesis in human MNT-1 cells incubated for 14 days

MNT-1 [4] = assay: cells; settings: Homo sapiens, MNT-1, 96 h; remark: listed apart in the source
Description: Inhibition of melanogenesis in human MNT-1 cells incubated for 4 days

MNT-1 [5] = assay: cells; settings: Homo sapiens, MNT-1, 336 h; remark: listed apart in the source
Description: Cytotoxicity against human MNT-1 cells incubated for 14 days by resazurin assay

Mushroom tyrosinase = Mushroom tyrosinase (Agaricus bisporus, UniProt O42713+Q00024+C7FF04+C7FF05); assay: Inhibition of mushroom tyrosinase using L-DOPA as substrate preincubated for 10 mins followed by substrate addition measured after 10 mins by absorbance based spectramax microplate reader assay; assay type: protein assay
Tyrosinase [6] = target: T1, Tyrosinase; assay: Inhibition of His-tagged human tyrosinase expressed in HEK293 cells using L-DOPA as substrate by microplate reader analysis

IC50 (Tyrosinase [2])	IC50 (MNT-1 [3])	IC50 (MNT-1 [4])	IC50 (Mushroom tyrosinase)	IC50 (Tyrosinase [6])	Compound	CC50 (MNT-1 [1])	CC50 (MNT-1 [5])
0.17 µM	0.28 µM	10 µM			CC(C)C(=O)Nc1nc(-c2ccc(O)cc2O)cs1	> 100 µM	36 µM
			0.09 µM		O=C1/C(=C/c2ccc(O)cc2O)Cc2c(O)cccc21		
			0.46 µM		CC(C)[C@@H](N)C(=O)Nc1cccc2c1C/C(=C\c1ccc(O)cc1O)C2=O		
			0.086 µM		O=C1/C(=C/c2ccc(O)cc2O)Cc2c(Br)cccc21		
> 100 µM			0.16 µM		O=C1/C(=C/c2ccc(O)cc2O)Cc2c1cccc2[N+](=O)[O-]		
	2 µM	24 µM	0.006 µM		CCCC(=O)Nc1cccc2c1C/C(=C\c1ccc(O)cc1O)C2=O	> 100 µM	77 µM
			0.1 µM		O=C(Nc1cccc2c1C/C(=C\c1ccc(O)cc1O)C2=O)c1ccccc1		
	0.53 µM	3.8 µM	0.027 µM		Nc1cccc2c1C/C(=C\c1ccc(O)cc1O)C2=O	> 100 µM	66 µM
	4.6 µM	19 µM	0.6 µM		C[C@H](N)C(=O)Nc1cccc2c1C/C(=C\c1ccc(O)cc1O)C2=O	> 100 µM	94 µM
	0.77 µM	3.2 µM	0.014 µM		CNc1cccc2c1C/C(=C\c1ccc(O)cc1O)C2=O	78 µM	29 µM
			0.26 µM		N#Cc1cccc2c1C/C(=C\c1ccc(O)cc1O)C2=O		
			0.16 µM		COc1cccc2c1C/C(=C\c1ccc(O)cc1O)C2=O		
			0.15 µM		O=C1/C(=C/c2ccc(O)cc2O)Cc2c(F)cccc21		
	3.1 µM	8 µM	0.014 µM		CCC(=O)Nc1cccc2c1C/C(=C\c1ccc(O)cc1O)C2=O	> 100 µM	65 µM
> 100 µM			0.18 µM		O=C1/C(=C/c2ccc(O)cc2O)Cc2c1cccc2C(F)(F)F		
	3.3 µM	19 µM	0.009 µM		CC(=O)Nc1cccc2c1C/C(=C\c1ccc(O)cc1O)C2=O	> 100 µM	67 µM
	4.1 µM	21 µM	0.019 µM		Cc1cccc2c1C/C(=C\c1ccc(O)cc1O)C2=O	> 100 µM	61 µM
	12 µM	29 µM	0.39 µM		NCC(=O)Nc1cccc2c1C/C(=C\c1ccc(O)cc1O)C2=O	> 100 µM	> 100 µM
	2.1 µM	7 µM	0.06 µM		CC(C)C(=O)Nc1cccc2c1C/C(=C\c1ccc(O)cc1O)C2=O	> 100 µM	62 µM
			0.083 µM		CN(C)c1cccc2c1C/C(=C\c1ccc(O)cc1O)C2=O		
				> 3000 µM	Oc1cccc(O)c1 [RESORCINOL]		
